Test results as given in ChEMBL document CHEMBL5113398, “Design and synthesis of new quinoline derivatives as selective C-RAF kinase inhibitors with potent anticancer activity” (Eur J Med Chem, 2022).

Assays:
NCI-H226 = test: Anticancer activity against human NCI-H226 cells assessed as cell growth inhibition incubated for 48 hrs by SRB assay; format: functional
A549 = test: Anticancer activity against human A549 cells assessed as cell growth inhibition incubated for 48 hrs by SRB assay; format: functional
LOX IMVI = test: Anticancer activity against human LOX IMVI cells assessed as total cell growth inhibition incubated for 48 hrs by SRB assay; format: functional
RPMI-8226 [1] = test: Anticancer activity against human RPMI-8226 cells assessed as total cell growth inhibition incubated for 48 hrs by SRB assay; format: functional
OVCAR-3 = test: Anticancer activity against human OVCAR-3 cells assessed as cell growth inhibition incubated for 48 hrs by SRB assay; format: functional
ACHN [2] = test: Anticancer activity against human ACHN cells assessed as total cell growth inhibition incubated for 48 hrs by SRB assay; format: functional
Malme-3M = test: Anticancer activity against human Malme-3M cells assessed as total cell growth inhibition incubated for 48 hrs by SRB assay; format: functional
UO-31 [3] = test: Anticancer activity against human UO-31 cells assessed as cell growth inhibition incubated for 48 hrs by SRB assay; format: functional
HCC 2998 = test: Anticancer activity against human HCC 2998 cells assessed as total cell growth inhibition incubated for 48 hrs by SRB assay; format: functional
Hs-578T [4] = test: Anticancer activity against human Hs-578T cells assessed as cell growth inhibition incubated for 48 hrs by SRB assay; format: functional
BT-549 [5] = test: Anticancer activity against human BT-549 cells assessed as total cell growth inhibition incubated for 48 hrs by SRB assay; format: functional
NCI-H460 = test: Anticancer activity against human NCI-H460 cells assessed as total cell growth inhibition incubated for 48 hrs by SRB assay; format: functional
RPMI-8226 [6] = test: Anticancer activity against human RPMI-8226 cells assessed as cell growth inhibition incubated for 48 hrs by SRB assay; format: functional
BT-549 [7] = test: Anticancer activity against human BT-549 cells assessed as cell growth inhibition incubated for 48 hrs by SRB assay; format: functional
U-251 [8] = test: Anticancer activity against human U-251 cells assessed as cell growth inhibition incubated for 48 hrs by SRB assay; format: functional
HT-29 = test: Anticancer activity against human HT-29 cells assessed as total cell growth inhibition incubated for 48 hrs by SRB assay; format: functional
NCI/ADR-RES [9] = test: Anticancer activity against human NCI/ADR-RES cells assessed as cell growth inhibition incubated for 48 hrs by SRB assay; format: functional
TK-10 = test: Anticancer activity against human TK-10 cells assessed as cell growth inhibition incubated for 48 hrs by SRB assay; format: functional
Hs-578T [10] = test: Anticancer activity against human Hs-578T cells assessed as total cell growth inhibition incubated for 48 hrs by SRB assay; format: functional
MDA-MB-468 = test: Anticancer activity against human MDA-MB-468 cells assessed as cell growth inhibition incubated for 48 hrs by SRB assay; format: functional
[11] = n-Octanol/PBS partition coefficient, logD of the compound at pH 7.4; format: physicochemical
NCI/ADR-RES [12] = test: Anticancer activity against human NCI/ADR-RES cells assessed as total cell growth inhibition incubated for 48 hrs by SRB assay; format: functional
SNB-75 = test: Anticancer activity against human SNB-75 cells assessed as cell growth inhibition incubated for 48 hrs by SRB assay; format: functional
SW-620 = test: Anticancer activity against human SW-620 cells assessed as cell growth inhibition incubated for 48 hrs by SRB assay; format: functional
COLO 205 = test: Anticancer activity against human COLO 205 cells assessed as total cell growth inhibition incubated for 48 hrs by SRB assay; format: functional
U-251 [13] = test: Anticancer activity against human U-251 cells assessed as total cell growth inhibition incubated for 48 hrs by SRB assay; format: functional
UO-31 [14] = test: Anticancer activity against human UO-31 cells assessed as total cell growth inhibition incubated for 48 hrs by SRB assay; format: functional
ACHN [15] = test: Anticancer activity against human ACHN cells assessed as cell growth inhibition incubated for 48 hrs by SRB assay; format: functional
NCI-H23 = test: Anticancer activity against human NCI-H23 cells assessed as cell growth inhibition incubated for 48 hrs by SRB assay; format: functional
HOP-62 = test: Anticancer activity against human HOP-62 cells assessed as cell growth inhibition incubated for 48 hrs by SRB assay; format: functional
SN12C = test: Anticancer activity against human SN12C cells assessed as cell growth inhibition incubated for 48 hrs by SRB assay; format: functional
SK-MEL-2 = test: Anticancer activity against human SK-MEL-2 cells assessed as total cell growth inhibition incubated for 48 hrs by SRB assay; format: functional
CCRF-CEM = test: Anticancer activity against human CCRF-CEM cells assessed as cell growth inhibition incubated for 48 hrs by SRB assay; format: functional
MCF7 = test: Anticancer activity against human MCF7 cells assessed as total cell growth inhibition incubated for 48 hrs by SRB assay; format: functional
Homo sapiens = species on record: Homo sapiens; test: Inhibition of ABL (unknown origin) at 1 uM in presence of ATP by hotspot kinase assay
HOP-92 = test: Anticancer activity against human HOP-92 cells assessed as total cell growth inhibition incubated for 48 hrs by SRB assay; format: functional
MDA-MB-231 = test: Anticancer activity against human MDA-MB-231 cells assessed as total cell growth inhibition incubated for 48 hrs by SRB assay; format: functional
MDA-MB-435 = test: Anticancer activity against human MDA-MB-435 cells assessed as total cell growth inhibition incubated for 48 hrs by SRB assay; format: functional
SF-268 = test: Anticancer activity against human SF-268 cells assessed as total cell growth inhibition incubated for 48 hrs by SRB assay; format: functional
[16] = biological target: Dual specificity mitogen-activated protein kinase kinase 1 (Homo sapiens) (UniProt Q02750); test: Inhibition of MEK1 (unknown origin) at 1 uM in presence of ATP by hotspot kinase assay
Chain of Dual specificity mitogen-activated protein kinase kinase 1 (Homo sapiens) (Q02750 whole entry): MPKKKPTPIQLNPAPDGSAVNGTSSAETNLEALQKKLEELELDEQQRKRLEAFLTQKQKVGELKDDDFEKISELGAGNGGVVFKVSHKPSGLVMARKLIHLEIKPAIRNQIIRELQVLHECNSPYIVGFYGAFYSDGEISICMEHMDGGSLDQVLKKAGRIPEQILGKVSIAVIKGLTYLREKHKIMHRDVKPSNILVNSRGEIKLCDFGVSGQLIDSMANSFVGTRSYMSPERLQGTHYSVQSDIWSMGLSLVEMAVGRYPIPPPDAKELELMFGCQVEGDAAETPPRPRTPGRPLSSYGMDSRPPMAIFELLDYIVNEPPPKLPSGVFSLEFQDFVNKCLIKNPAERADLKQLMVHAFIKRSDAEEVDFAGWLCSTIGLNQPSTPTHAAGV

OVCAR-8 = test: Anticancer activity against human OVCAR-8 cells assessed as cell growth inhibition incubated for 48 hrs by SRB assay; format: functional
HCT-15 [17] = test: Anticancer activity against human HCT-15 cells assessed as total cell growth inhibition incubated for 48 hrs by SRB assay; format: functional
[18] = biological target: Receptor-type tyrosine-protein kinase FLT3 (Homo sapiens) (UniProt P36888); test: Inhibition of FLT3 (unknown origin) at 1 uM in presence of ATP by hotspot kinase assay
Chain of Receptor-type tyrosine-protein kinase FLT3 (Homo sapiens) (P36888 whole entry): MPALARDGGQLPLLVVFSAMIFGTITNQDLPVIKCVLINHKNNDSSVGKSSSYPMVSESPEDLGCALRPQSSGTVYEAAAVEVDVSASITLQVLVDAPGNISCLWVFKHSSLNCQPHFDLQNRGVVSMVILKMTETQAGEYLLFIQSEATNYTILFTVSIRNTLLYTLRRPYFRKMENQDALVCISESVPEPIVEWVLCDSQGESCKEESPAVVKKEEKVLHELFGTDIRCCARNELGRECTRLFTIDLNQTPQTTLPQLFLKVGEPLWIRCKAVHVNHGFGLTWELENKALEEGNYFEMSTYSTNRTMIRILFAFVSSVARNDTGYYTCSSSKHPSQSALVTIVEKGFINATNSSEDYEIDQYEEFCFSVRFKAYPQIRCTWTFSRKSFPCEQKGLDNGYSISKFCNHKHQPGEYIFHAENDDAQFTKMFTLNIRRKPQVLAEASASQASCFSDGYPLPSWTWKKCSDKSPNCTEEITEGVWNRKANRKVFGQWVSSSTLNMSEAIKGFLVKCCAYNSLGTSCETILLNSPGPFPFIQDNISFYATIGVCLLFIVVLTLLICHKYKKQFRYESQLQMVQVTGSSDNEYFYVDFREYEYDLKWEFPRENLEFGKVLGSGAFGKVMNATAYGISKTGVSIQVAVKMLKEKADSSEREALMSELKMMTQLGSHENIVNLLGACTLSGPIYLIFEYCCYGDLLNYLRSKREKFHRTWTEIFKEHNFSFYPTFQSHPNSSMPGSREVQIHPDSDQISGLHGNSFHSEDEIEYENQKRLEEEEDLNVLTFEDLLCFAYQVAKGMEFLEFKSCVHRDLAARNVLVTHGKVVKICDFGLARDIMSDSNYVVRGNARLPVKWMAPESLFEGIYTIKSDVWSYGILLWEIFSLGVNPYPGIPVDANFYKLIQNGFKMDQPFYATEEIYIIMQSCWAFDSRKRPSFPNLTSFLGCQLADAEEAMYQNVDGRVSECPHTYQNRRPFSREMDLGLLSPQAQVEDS

[19] = biological target: Platelet-derived growth factor receptor alpha (Homo sapiens) (UniProt P16234); test: Inhibition of PDGFRalpha (unknown origin) at 1 uM in presence of ATP by hotspot kinase assay
Chain of Platelet-derived growth factor receptor alpha (Homo sapiens) (P16234 whole entry): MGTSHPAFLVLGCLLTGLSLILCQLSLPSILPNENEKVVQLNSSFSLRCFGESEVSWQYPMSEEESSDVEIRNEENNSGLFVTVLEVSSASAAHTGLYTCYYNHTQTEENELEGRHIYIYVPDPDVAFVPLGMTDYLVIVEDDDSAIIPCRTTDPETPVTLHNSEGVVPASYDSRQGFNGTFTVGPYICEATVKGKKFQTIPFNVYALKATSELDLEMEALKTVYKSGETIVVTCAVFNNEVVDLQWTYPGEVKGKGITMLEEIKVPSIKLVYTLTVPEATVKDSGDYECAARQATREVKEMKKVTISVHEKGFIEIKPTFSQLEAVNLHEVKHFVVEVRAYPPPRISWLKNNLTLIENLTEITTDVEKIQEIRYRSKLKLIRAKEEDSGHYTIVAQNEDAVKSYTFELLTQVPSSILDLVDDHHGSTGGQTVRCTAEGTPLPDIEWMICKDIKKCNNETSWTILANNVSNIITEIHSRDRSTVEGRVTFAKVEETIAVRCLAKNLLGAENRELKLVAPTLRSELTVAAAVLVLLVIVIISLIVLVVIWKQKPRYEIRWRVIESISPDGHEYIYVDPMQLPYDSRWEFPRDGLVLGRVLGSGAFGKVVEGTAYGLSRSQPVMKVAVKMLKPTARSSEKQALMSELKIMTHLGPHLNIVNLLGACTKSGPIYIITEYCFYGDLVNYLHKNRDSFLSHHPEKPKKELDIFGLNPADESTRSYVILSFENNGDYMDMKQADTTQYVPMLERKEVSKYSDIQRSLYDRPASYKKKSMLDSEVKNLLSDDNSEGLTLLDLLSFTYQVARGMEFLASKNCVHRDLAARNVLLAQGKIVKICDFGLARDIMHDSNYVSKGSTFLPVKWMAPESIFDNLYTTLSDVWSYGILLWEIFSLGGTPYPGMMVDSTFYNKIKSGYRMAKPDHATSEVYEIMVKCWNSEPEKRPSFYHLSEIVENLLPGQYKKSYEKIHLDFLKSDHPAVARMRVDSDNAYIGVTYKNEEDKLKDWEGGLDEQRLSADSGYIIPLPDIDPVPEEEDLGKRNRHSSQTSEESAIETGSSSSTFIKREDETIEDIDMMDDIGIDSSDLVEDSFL

[20] = tested on: Serine/threonine-protein kinase B-raf (Homo sapiens), P15056 [V600E]; test: Inhibition of B-RAF V600E mutant (unknown origin) at 1 uM in presence of ATP by hotspot kinase assay
Chain of Serine/threonine-protein kinase B-raf (Homo sapiens), P15056 [V600E] (P15056 whole entry V600E): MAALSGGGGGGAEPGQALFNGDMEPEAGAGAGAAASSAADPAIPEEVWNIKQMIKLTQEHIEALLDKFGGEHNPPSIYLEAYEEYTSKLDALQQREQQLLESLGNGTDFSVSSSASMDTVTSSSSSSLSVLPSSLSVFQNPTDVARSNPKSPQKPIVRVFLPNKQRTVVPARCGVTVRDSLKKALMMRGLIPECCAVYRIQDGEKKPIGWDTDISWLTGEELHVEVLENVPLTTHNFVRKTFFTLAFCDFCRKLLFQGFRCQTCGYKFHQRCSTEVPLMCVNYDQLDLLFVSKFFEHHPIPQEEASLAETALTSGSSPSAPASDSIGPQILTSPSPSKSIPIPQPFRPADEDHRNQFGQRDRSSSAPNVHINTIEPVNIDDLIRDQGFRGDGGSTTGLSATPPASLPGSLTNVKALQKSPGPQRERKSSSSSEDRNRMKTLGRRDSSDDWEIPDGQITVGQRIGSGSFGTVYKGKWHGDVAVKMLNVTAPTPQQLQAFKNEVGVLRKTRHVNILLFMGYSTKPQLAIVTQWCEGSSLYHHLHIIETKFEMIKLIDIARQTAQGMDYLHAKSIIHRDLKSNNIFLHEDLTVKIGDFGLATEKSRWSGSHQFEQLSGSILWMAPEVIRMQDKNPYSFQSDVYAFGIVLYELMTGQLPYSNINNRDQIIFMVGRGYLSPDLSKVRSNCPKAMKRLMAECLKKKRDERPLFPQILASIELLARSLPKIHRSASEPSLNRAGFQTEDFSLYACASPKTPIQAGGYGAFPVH

HCT-15 [21] = test: Anticancer activity against human HCT-15 cells assessed as cell growth inhibition incubated for 48 hrs by SRB assay; format: functional
PC-3 = test: Anticancer activity against human PC-3 cells assessed as total cell growth inhibition incubated for 48 hrs by SRB assay; format: functional
786-0 = test: Anticancer activity against human 786-0 cells assessed as cell growth inhibition incubated for 48 hrs by SRB assay; format: functional

GI50 (NCI-H226): 1.6 µM
GI50 (A549): 1.72 µM
GI50 (OVCAR-3): 1.43 µM
GI50 (RPMI-8226 [6]): 0.84 µM
GI50 (BT-549 [7]): 1.87 µM
GI50 (U-251 [8]): 1.13 µM
GI50 (MDA-MB-468): 1.22 µM
logD [11]: 2.91
GI50 (SW-620): 1.72 µM
GI50 (ACHN [15]): 1.53 µM
GI50 (NCI-H23): 1.66 µM
GI50 (CCRF-CEM): 1.41 µM
inhibition (Homo sapiens): -2.3%
inhibition [16]: 25.5%
GI50 (OVCAR-8): 1.67 µM
inhibition [18]: 20.5%
inhibition [19]: 26.9%
inhibition [20]: 34.6%
GI50 (HCT-15 [21]): 1.1 µM
GI50 (786-0): 1.28 µM
SMILES: COc1cc2cc(Oc3ccc(NC(=O)Nc4cc(C(F)(F)F)cc(C(F)(F)F)c4)cc3)c(C)nc2cc1OCCN1CCOCC1
TGI (LOX IMVI): 5.09 µM
TGI (RPMI-8226 [1]): 2.12 µM
TGI (ACHN [2]): 5.42 µM
TGI (Malme-3M): 3.79 µM
GI50 (UO-31 [3]): 1.01 µM
TGI (HCC 2998): 6.97 µM
GI50 (Hs-578T [4]): 1.56 µM
TGI (BT-549 [5]): 7.35 µM
TGI (NCI-H460): 5.52 µM
TGI (HT-29): 7.14 µM
GI50 (NCI/ADR-RES [9]): 1.59 µM
GI50 (TK-10): 3.7 µM
TGI (Hs-578T [10]): 7 µM
TGI (NCI/ADR-RES [12]): 7.21 µM
GI50 (SNB-75): 1.02 µM
TGI (COLO 205): 2.18 µM
TGI (U-251 [13]): 2.85 µM
TGI (UO-31 [14]): 4.06 µM
GI50 (HOP-62): 2.2 µM
GI50 (SN12C): 1.49 µM
TGI (SK-MEL-2): 6.91 µM
TGI (MCF7): 3.91 µM
TGI (HOP-92): 2.71 µM
TGI (MDA-MB-231): 6.45 µM
TGI (MDA-MB-435): 6.72 µM
TGI (SF-268): 8.06 µM
TGI (HCT-15 [17]): 2.77 µM
TGI (PC-3): 5.16 µM
